# From patent US20250129018A1, “PLEUROMUTILIN DERIVATIVES CONTAINING CYCLOALKYL GROUP AND PREPARATION METHODS AND APPLICATIONS THEREOF” (priority 2023, published 2025)
# Where two headings read alike, the source gives them in different places.
# What was measured:
# [1] = test system: S. aureus-28; assay: MIC, clinical strain; type: cell-based, Staphylococcus aureus
# Protocol: (§1) The pleuromutilin derivatives 1-4 prepared from Example 9 of the present disclosure were determined for their effect on Methicillin-resistant Staphylococcus aureus, Methicillin-resistant Staphylococcus epidermidis, standard strains of Staphylococcus aureus (S. aureus-29213 and S. aureus-25923), clinical strains 1-48 of S. aureus, Escherichia coli, S. agalactiae and S. dysgalactiae equisimilis (S. dysgalactiae-1, S. dysgalactiae-2, S. dysgalactiae-3) and minimum inhibitory concentration (MIC) using a two-fold serial dilution method, and the results were shown in Table 1, Table 2 and Table 3. The standard strains are commercially available from ATCC, and the clinical strains are preserved by Lanzhou Institute of Husbandry and Pharmaceutical Science of Chinese Academy of Agricultural Sciences (Lanzhou, Gansu, China).
# [2] = test system: S. aureus-27; assay: MIC, clinical strain; type: cell-based, Staphylococcus aureus
# Protocol: as §1
# [3] = test system: S. aureus-35; assay: MIC, clinical strain; type: cell-based, Staphylococcus aureus
# Protocol: as §1
# [4] = test system: S. aureus-13; assay: MIC, clinical strain; type: cell-based, Staphylococcus aureus
# Protocol: as §1
# [5] = test system: S. aureus-45; assay: MIC, clinical strain; type: cell-based, Staphylococcus aureus
# Protocol: as §1
# [6] = test system: S. aureus-20; assay: MIC, clinical strain; type: cell-based, Staphylococcus aureus
# Protocol: as §1
# [7] = test system: S. aureus-23; assay: MIC, clinical strain; type: cell-based, Staphylococcus aureus
# Protocol: as §1
# [8] = test system: S. aureus-9; assay: MIC, clinical strain; type: cell-based, Staphylococcus aureus
# Protocol: as §1
# [9] = test system: S. aureus-36; assay: MIC, clinical strain; type: cell-based, Staphylococcus aureus
# Protocol: as §1
# [10] = test system: S. aureus-41; assay: MIC, clinical strain; type: cell-based, Staphylococcus aureus
# Protocol: as §1
# [11] = test system: S. aureus-31; assay: MIC, clinical strain; type: cell-based, Staphylococcus aureus
# Protocol: as §1
# [12] = test system: S. aureus-30; assay: MIC, clinical strain; type: cell-based, Staphylococcus aureus
# Protocol: as §1
# [13] = test system: S. aureus-4; assay: MIC, clinical strain; type: cell-based, Staphylococcus aureus
# Protocol: as §1
# [14] = test system: S. aureus-48; assay: MIC, clinical strain; type: cell-based, Staphylococcus aureus
# Protocol: as §1
# [15] = test system: S. aureus-18; assay: MIC, clinical strain; type: cell-based, Staphylococcus aureus
# Protocol: as §1
# [16] = test system: S. aureus-40; assay: MIC, clinical strain; type: cell-based, Staphylococcus aureus
# Protocol: as §1
# [17] = test system: S. aureus-19; assay: MIC, clinical strain; type: cell-based, Staphylococcus aureus
# Protocol: as §1
# [18] = test system: S. aureus-3; assay: MIC, clinical strain; type: cell-based, Staphylococcus aureus
# Protocol: as §1
# [19] = test system: S. aureus-6; assay: MIC, clinical strain; type: cell-based, Staphylococcus aureus
# Protocol: as §1
# [20] = test system: S. aureus-16; assay: MIC, clinical strain; type: cell-based, Staphylococcus aureus
# Protocol: as §1
# [21] = test system: S. aureus-37; assay: MIC, clinical strain; type: cell-based, Staphylococcus aureus
# Protocol: as §1
# [22] = test system: S. aureus-21; assay: MIC, clinical strain; type: cell-based, Staphylococcus aureus
# Protocol: as §1
# [23] = test system: S. aureus-43; assay: MIC, clinical strain; type: cell-based, Staphylococcus aureus
# Protocol: as §1
# [24] = test system: S. aureus-24; assay: MIC, clinical strain; type: cell-based, Staphylococcus aureus
# Protocol: as §1
# [25] = test system: S. aureus-22; assay: MIC, clinical strain; type: cell-based, Staphylococcus aureus
# Protocol: as §1
# [26] = test system: S. aureus-10; assay: MIC, clinical strain; type: cell-based, Staphylococcus aureus
# Protocol: as §1
# [27] = test system: S. aureus-8; assay: MIC, clinical strain; type: cell-based, Staphylococcus aureus
# Protocol: as §1
# [28] = test system: S. aureus-5; assay: MIC, clinical strain; type: cell-based, Staphylococcus aureus
# Protocol: as §1
# [29] = test system: S. aureus-15; assay: MIC, clinical strain; type: cell-based, Staphylococcus aureus
# Protocol: as §1
# [30] = test system: E. coli-25922; assay: MIC, two-fold serial dilution method; type: cell-based, Escherichia coli; conditions: for MIC: Escherichia coli, read-out: minimum inhibitory concentration
# Protocol: as §1
Structure (SMILES),in vitro minimum inhibitory concentration [1],in vitro minimum inhibitory concentration [2],in vitro minimum inhibitory concentration [3],in vitro minimum inhibitory concentration [5],in vitro minimum inhibitory concentration [7],in vitro minimum inhibitory concentration [8],in vitro minimum inhibitory concentration [9],in vitro minimum inhibitory concentration [10],in vitro minimum inhibitory concentration [11],in vitro minimum inhibitory concentration [12],in vitro minimum inhibitory concentration [13],in vitro minimum inhibitory concentration [14],in vitro minimum inhibitory concentration [15],in vitro minimum inhibitory concentration [16],in vitro minimum inhibitory concentration [17],in vitro minimum inhibitory concentration [18],in vitro minimum inhibitory concentration [19],in vitro minimum inhibitory concentration [20],in vitro minimum inhibitory concentration [21],in vitro minimum inhibitory concentration [23],also measured
C=C[C@]1(C)C[C@@H](OC(=O)CSCCN(CC)CC)[C@]2(C)[C@H](C)CC[C@]3(CCC(=O)[C@H]32)[C@@H](C)[C@@H]1O [Tiamulin],1,0.5,0.5,1,0.5,0.5,0.25,0.5,0.5,0.5,0.5,0.5,0.125,1,0.5,0.5,0.25,0.5,0.5,1,in vitro minimum inhibitory concentration [4]: 0.25 µg/mL; in vitro minimum inhibitory concentration [6]: 0.5 µg/mL; in vitro minimum inhibitory concentration [22]: 0.5 µg/mL; in vitro minimum inhibitory concentration [24]: 0.25; in vitro minimum inhibitory concentration [25]: 0.5 µg/mL; in vitro minimum inhibitory concentration [26]: 0.5; in vitro minimum inhibitory concentration [27]: 0.5; in vitro minimum inhibitory concentration [28]: 0.5; in vitro minimum inhibitory concentration [29]: 0.5 µg/mL; MIC ([30]; E. coli-25922): > 16 µg/mL
C=C[C@]1(C)C[C@@H](OC(=O)CSC(C)(C)CNC(=O)[C@H](N)C(C)C)[C@]2(C)[C@H](C)CC[C@]3(CCC(=O)[C@H]32)[C@@H](C)[C@@H]1O [Valnemulin],0.063,0.063,0.063,0.25,0.063,0.063,0.063,0.063,0.063,0.063,0.125,0.125,0.063,0.063,0.063,0.063,0.063,0.063,0.063,0.063,in vitro minimum inhibitory concentration ([4]; in µg/mL): 0.063; in vitro minimum inhibitory concentration ([6]; in µg/mL): 0.125; in vitro minimum inhibitory concentration ([22]; in µg/mL): 0.125; in vitro minimum inhibitory concentration [24]: 0.063; in vitro minimum inhibitory concentration [25]: 0.25 µg/mL; in vitro minimum inhibitory concentration [26]: 0.063; in vitro minimum inhibitory concentration [27]: 0.063; in vitro minimum inhibitory concentration [28]: 0.063; in vitro minimum inhibitory concentration ([29]; in µg/mL): 0.063; MIC [30]: 16 µg/mL
C=CC1(C)CC(OC(=O)CSC(C)(C)CNC(=O)C2CCC2)C2(C)C(C)CCC3(CCC(=O)C32)C(C)C1O (stereo not drawn) [derivative 2],0.063,0.031,0.125,0.125,0.063,0.063,0.016,0.031,0.031,0.031,0.063,0.063,0.031,0.016,0.125,0.031,0.031,0.031,0.063,0.016,in vitro minimum inhibitory concentration ([4]; in µg/mL): 0.031; in vitro minimum inhibitory concentration ([6]; in µg/mL): 0.063; in vitro minimum inhibitory concentration ([22]; in µg/mL): 0.063; in vitro minimum inhibitory concentration [24]: 0.063; in vitro minimum inhibitory concentration ([25]; in µg/mL): 0.063; in vitro minimum inhibitory concentration [26]: 0.063; in vitro minimum inhibitory concentration [27]: 0.063; in vitro minimum inhibitory concentration [28]: 0.031; in vitro minimum inhibitory concentration ([29]; in µg/mL): 0.031; minimum inhibitory concentration ([30]; E. coli-25922): >16 µg/mL
